Measurements taken from patent publication US20140364434A1, “Biomarkers for Prediction of Response to PARP Inhibition in Breast Cancer” (The Regents of the University of Califonia, priority 2011, published 2014).
Read-outs that look alike come from different tables or passages of the source.

Columns and labels:
[1] = tested on: sporadic triple negative breast cancer; conditions: cited from earlier work
[2] = tested on: hereditary BRCA1/2-related breast cancer; conditions: cited from earlier work
[3] = tested on: metastatic triple negative breast cancer; conditions: cited from earlier work
BT20 = assay: growth inhibition assay, sensitivity to olaparib (SF50); type: cell-based, human
Experimental: (§1) Cells were exposed continuously to the inhibitor, and medium and inhibitor were replaced every four days. After 15 days, cells were fixed and stained with sulphorhodamine-B (Sigma, St. Louis, USA) and a colorimetric assay performed as described previously. Surviving fractions (SFs) were calculated and drug sensitivity curves determined with the Four Parameter Logistic Regression model as previously described. […] Nature 2005, 434(7035):917-921, Edwards S L, Brough R, Lord […], Boyd […], Ashworth A: […] Nature 2008, 451(7182):1111-1115]. […] Oncogene 30 (29):3222-3233. doi:10.1038/one.2011.421). A detailed description of the availability and preprocessing of all molecular data sets is provided below and [[…], et al., (2012) Subtype and pathway specific responses to anticancer compounds in breast cancer. […] These cells mirror many of the transcriptional and genomic characteristics of primary breast tumors and have been used to model responses to a large number of experimental and approved therapeutic compounds [Neve R M, Chin […], Clark L, Bayani N, Coppe J P, Tong F et al: A collection of breast cancer cell lines for the study of functionally distinct cancer subtypes. […] (2012) Subtype and pathway specific responses to anticancer compounds in breast cancer. […] Cell lines were divided into a group of 15 resistant and 7 sensitive cell lines, based on an SF50 threshold of 1 μM. […] Surviving fractions (SFs) were calculated and drug sensitivity curves determined with the Four Parameter Logistic Regression model as previously described [Farmer H, McCabe N, Lord C J, Tutt A N, Johnson D A, Richardson […], Dillon […], Knights C et al: Targeting the DNA repair defect in BRCA mutant cells as a therapeutic strategy. Nature 2005, 434(7035):917-921].\

BT474 = assay: as above; type: cell-based, human
Experimental: as §1

BT549 = assay: as above; type: cell-based, human
Experimental: as §1

CAMA1 = assay: as above; type: cell-based, human
Experimental: as §1

HCC1143 = assay: as above; type: cell-based, human
Experimental: as §1

HCC1428 = assay: as above; type: cell-based, human
Experimental: as §1

HCC1954 = assay: as above; type: cell-based, human
Experimental: as §1

HCC202 = assay: as above; type: cell-based, human
Experimental: as §1

HCC38 = assay: as above; type: cell-based, human
Experimental: as §1

HCC70 = assay: as above; type: cell-based, human
Experimental: as §1

HS578T = assay: as above; type: cell-based, human
Experimental: as §1

MCF7 = assay: as above; type: cell-based, human
Experimental: as §1

MDAMB134VI = assay: as above; type: cell-based, human
Experimental: as §1

MDAMB157 = assay: as above; type: cell-based, human
Experimental: as §1

MDAMB231 = assay: as above; type: cell-based, human
Experimental: as §1

MDAMB436 = assay: as above; type: cell-based, human
Experimental: as §1

MDAMB453 = assay: as above; type: cell-based, human
Experimental: as §1

MDAMB468 = assay: as above; type: cell-based, human
Experimental: as §1

SKBR3 = assay: as above; type: cell-based, human
Experimental: as §1

SUM149PT = assay: as above; type: cell-based, human
Experimental: as §1

SUM159PT = assay: as above; type: cell-based, human
Experimental: as §1

T47D = assay: as above; type: cell-based, human
Experimental: as §1

[4] = tested on: panel of 22 breast cancer cell lines; assay: growth inhibition assay, whole panel (SF50); type: cell-based, human
Experimental: as §1

[5] = tested on: BRCA1/2 mutation carriers; conditions: monotherapy; BRCA1/2 mutation carriers who had previously received several courses of chemotherapy; cited from earlier work
[6] = tested on: carriers of a BRCA1/2 mutation and patients without known BRCA mutations; conditions: cited from earlier work
[7] = heavily pre-treated sporadic triple negative breast cancer
[8] = read-out: Olaparib SF50, continuous exposure 15 days, sulphorhodamine-B
[9] = read-out: olaparib SF50, Table 9

**Q.** Which results are given for `C[C@]1(c2nc3c(C(N)=O)cccc3[nH]2)CCCN1` [ABT-888]?
**A.** activity of the combination with temozolomide [1, 7]: no evidence of activity; efficacy combined with DNA-damaging agent temozolomide [2]: efficacious

**Q.** For `NC(=O)c1ccc(I)c([N+](=O)[O-])c1` [BSI-201], which “survival, phase II clinical trial” value ([3]; combined with gemcitabine/carboplatin chemotherapy) is on record?
**A.** Its value is “dramatic survival advantage”.

**Q.** And the “confirmation in randomized, open-label phase III study” value ([3]; combined with gemcitabine/carboplatin)?
**A.** The value was “could not be confirmed”.

**Q.** For `NC(=O)c1cccc2cn(-c3ccc([C@@H]4CCCNC4)cc3)nc12` [MK-4827], which “efficacy as single agent” value [2] is on record?
**A.** Its value is “efficacious”.

**Q.** For `O=C(c1cc(Cc2n[nH]c(=O)c3ccccc23)ccc1F)N1CCN(C(=O)C2CC2)CC1` [Olaparib], which IC50 (BT20; [8]) is on record?
**A.** The IC50 was greater than 50 µM.

**Q.** What about the IC50 (BT20; [9]) of the same compound?
**A.** The IC50 was greater than 50 µM.

**Q.** What about the IC50 (BT474; [8]) of the same compound?
**A.** Its IC50 is 32 µM.

**Q.** What about the IC50 (BT474; [9]) of the same compound?
**A.** Its IC50 is 32 µM.

**Q.** And the IC50 (BT549; [8])?
**A.** Its IC50 is 21.4 µM.

**Q.** What about the IC50 (BT549; [9]) of the same compound?
**A.** The IC50 was 21.4 µM.

**Q.** And the IC50 (CAMA1; [8])?
**A.** The IC50 was greater than 50 µM.

**Q.** What about the IC50 (CAMA1; [9]) of the same compound?
**A.** The IC50 was greater than 50 µM.

**Q.** And the IC50 (HCC1143; [8])?
**A.** The IC50 was 0.0211 µM.

**Q.** What about the IC50 (HCC1143; [9]) of the same compound?
**A.** Its IC50 is 0.0211 µM.

**Q.** And the IC50 (HCC1428; [8])?
**A.** Its IC50 is greater than 50 µM.

**Q.** What about the IC50 (HCC1428; [9]) of the same compound?
**A.** Its IC50 is greater than 50 µM.

**Q.** What about the IC50 (HCC1954; [8]) of the same compound?
**A.** The IC50 was 15.5 µM.

**Q.** What about the IC50 (HCC1954; [9]) of the same compound?
**A.** The IC50 was 15.5 µM.

**Q.** And the IC50 (HCC202; [8])?
**A.** The IC50 was 0.413 µM.

**Q.** And the IC50 (HCC202; [9])?
**A.** Its IC50 is 0.413 µM.

**Q.** And the IC50 (HCC38; [8])?
**A.** Its IC50 is greater than 50 µM.

**Q.** What about the IC50 (HCC38; [9]) of the same compound?
**A.** Its IC50 is greater than 50 µM.

**Q.** What about the IC50 (HCC70; [8]) of the same compound?
**A.** The IC50 was 0.655 µM.

**Q.** What about the IC50 (HCC70; [9]) of the same compound?
**A.** Its IC50 is 0.655 µM.

**Q.** What about the IC50 (HS578T; [8]) of the same compound?
**A.** Its IC50 is 6.55 µM.

**Q.** What about the IC50 (HS578T; [9]) of the same compound?
**A.** The IC50 was 6.55 µM.

**Q.** What about the IC50 (MCF7; [8]) of the same compound?
**A.** The IC50 was 14.7 µM.

**Q.** And the IC50 (MCF7; [9])?
**A.** Its IC50 is 14.7 µM.

**Q.** What about the IC50 (MDAMB134VI; [8]) of the same compound?
**A.** The IC50 was 30.9 µM.

**Q.** And the IC50 (MDAMB134VI; [9])?
**A.** Its IC50 is 30.9 µM.

**Q.** And the IC50 (MDAMB157; [8])?
**A.** The IC50 was 2.41 µM.

**Q.** And the IC50 (MDAMB157; [9])?
**A.** The IC50 was 2.41 µM.

**Q.** And the IC50 (MDAMB231; [8])?
**A.** Its IC50 is 30 µM.

**Q.** What about the IC50 (MDAMB231; [9]) of the same compound?
**A.** Its IC50 is 30 µM.

**Q.** And the IC50 (MDAMB436; [8])?
**A.** The IC50 was 0.00044 µM.

**Q.** And the IC50 (MDAMB436; [9])?
**A.** The IC50 was 0.00044 µM.

**Q.** What about the IC50 (MDAMB453; [8]) of the same compound?
**A.** The IC50 was 0.00915 µM.

**Q.** What about the IC50 (MDAMB453; [9]) of the same compound?
**A.** Its IC50 is 0.00915 µM.

**Q.** What about the IC50 (MDAMB468; [8]) of the same compound?
**A.** Its IC50 is 0.514 µM.

**Q.** And the IC50 (MDAMB468; [9])?
**A.** Its IC50 is 0.514 µM.

**Q.** And the IC50 (SKBR3; [8])?
**A.** The IC50 was greater than 50 µM.

**Q.** And the IC50 (SKBR3; [9])?
**A.** The IC50 was greater than 50 µM.

**Q.** And the IC50 (SUM149PT; [8])?
**A.** The IC50 was 0.0161 µM.

**Q.** And the IC50 (SUM149PT; [9])?
**A.** The IC50 was 0.0161 µM.

**Q.** And the IC50 (SUM159PT; [8])?
**A.** Its IC50 is 16.3 µM.

**Q.** And the IC50 (SUM159PT; [9])?
**A.** Its IC50 is 16.3 µM.

**Q.** What about the IC50 (T47D; [8]) of the same compound?
**A.** The IC50 was 19.9 µM.

**Q.** And the IC50 (T47D; [9])?
**A.** The IC50 was 19.9 µM.

**Q.** What about the IC50 ([4]; 5 cell lines of the panel, read-out: SF50 not reached at the maximum treatment concentration) of the same compound?
**A.** Its IC50 is greater than 50 µM.

**Q.** What about the IC50 ([4]; read-out: concentration of olaparib needed to reduce survival to 50% (SF50), lower end of the range, lowest SF50 among 22 breast cancer cell lines) of the same compound?
**A.** The IC50 was 0.00044 µM.

**Q.** And the IC50 ([4]; read-out: concentration of olaparib needed to reduce survival to 50% (SF50), upper end of the range, highest SF50 reached among 22 breast cancer cell lines)?
**A.** Its IC50 is 32 µM.

**Q.** What about the objective response rates [5] of the same compound?
**A.** The objective response rates was 41%.

**Q.** What about the “results as single agent” value [1, 7] of the same compound?
**A.** The value was “negative results”.

**Q.** What about the “response to monotherapy, phase 2 trial” value ([1]; olaparib monotherapy, triple negative breast cancer patients) of the same compound?
**A.** The value was “largely did not respond”.

**Q.** And the “efficacy as single agent” value [2]?
**A.** Its value is “efficacious”.

**Q.** What about the “antitumor activity, phase 1 trial” value ([6]; BRCA1/2 mutation carriers vs patients without known BRCA mutations) of the same compound?
**A.** Its value is “has antitumor activity for the majority of carriers of a BRCA1/2 mutation but not for patients without known BRCA mutations”.

**Q.** And the “adverse effects, phase 1 trial” value ([6]; compared with conventional chemotherapy)?
**A.** Its value is “only a few of the adverse effects of conventional chemotherapy”.
